Target: T1, androgen receptor (Homo sapiens, UniProt P10275)
T1 sequence (P10275 1-920 Q868H): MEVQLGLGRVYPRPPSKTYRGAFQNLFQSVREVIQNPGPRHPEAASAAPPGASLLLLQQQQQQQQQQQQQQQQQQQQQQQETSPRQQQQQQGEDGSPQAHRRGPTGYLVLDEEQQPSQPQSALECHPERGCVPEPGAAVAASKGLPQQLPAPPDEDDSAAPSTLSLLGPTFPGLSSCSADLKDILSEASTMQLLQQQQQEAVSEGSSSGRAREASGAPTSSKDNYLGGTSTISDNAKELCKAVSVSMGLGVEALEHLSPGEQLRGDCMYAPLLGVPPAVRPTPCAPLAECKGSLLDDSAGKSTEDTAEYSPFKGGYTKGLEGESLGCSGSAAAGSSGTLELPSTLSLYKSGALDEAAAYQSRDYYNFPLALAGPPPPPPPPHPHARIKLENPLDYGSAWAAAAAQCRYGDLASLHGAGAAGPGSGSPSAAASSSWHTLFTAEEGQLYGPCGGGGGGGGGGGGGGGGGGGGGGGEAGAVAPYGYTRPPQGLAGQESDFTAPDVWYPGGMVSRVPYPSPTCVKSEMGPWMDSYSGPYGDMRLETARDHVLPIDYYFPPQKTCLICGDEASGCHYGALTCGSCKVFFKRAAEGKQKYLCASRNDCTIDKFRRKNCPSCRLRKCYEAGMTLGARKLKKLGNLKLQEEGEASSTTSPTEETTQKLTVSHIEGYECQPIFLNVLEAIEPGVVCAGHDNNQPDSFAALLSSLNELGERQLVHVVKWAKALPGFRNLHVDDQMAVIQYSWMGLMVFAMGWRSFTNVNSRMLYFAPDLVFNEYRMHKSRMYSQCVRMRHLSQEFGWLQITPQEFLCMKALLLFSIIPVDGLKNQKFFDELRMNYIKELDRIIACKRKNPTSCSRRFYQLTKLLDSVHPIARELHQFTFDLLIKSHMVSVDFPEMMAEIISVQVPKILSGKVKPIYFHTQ
Test: AR Antagonist Cell Assay (MMTV-luciferase reporter, DHT-induced)
Type: cell-based
Conditions: MDA-MB453-MMTV clone 54-19 cells, 100 pM DHT, 17 hr
In short: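 Stably transfected MDA-MB453 cells carrying an ARE-containing MMTV promoter–firefly luciferase reporter, pretreated 30 min with compound at 10 uM or 1 uM in 1% charcoal-treated serum medium. Then stimulated with 100 pM DHT for 17 hr at 37° C. and luminescence read; expressed as % inhibition of DHT-induced signal.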

Structure (SMILES)	IC50
O=c1cc(C(F)(F)F)c2cc(S(=O)(=O)Nc3ccccc3Br)ccc2[nH]1 [Example 110, 2-Oxo-4-trifluoromethyl-1,2-dihydroquinoline-6-sulfonic acid(2-bromophenyl)amide]	> 10000 nM
Cc1cc(=O)oc2cc(NS(=O)(=O)c3ccc4[nH]c(=O)cc(C(F)(F)F)c4c3)ccc12 [Example 111, 2-Oxo-4-trifluoromethyl-1,2-dihydroquinoline-6-sulfonic acid(4-methyl-2-oxo-2H-chromen-7-yl)amide]	> 10000 nM
O=c1cc(C(F)(F)F)c2cc(S(=O)(=O)Nc3cccc(OCc4ccccc4)c3)ccc2[nH]1 [Example 114, 2-Oxo-4-trifluoromethyl-1,2-dihydroquinoline-6-sulfonic acid(3-benzyloxyphenyl)amide]	> 10000 nM
COc1cccc(NS(=O)(=O)c2ccc3[nH]c(=O)cc(C(F)(F)F)c3c2)c1 [Example 116, 2-Oxo-4-trifluoromethyl-1,2-dihydroquinoline-6-sulfonic acid(3-methoxyphenyl)amide]	340 nM
CC(C)NS(=O)(=O)c1ccc2[nH]c(=O)cc(C(F)(F)F)c2c1 [Example 117, 2-Oxo-4-trifluoromethyl-1,2-dihydroquinoline-6-sulfonic acidisopropylamide]	2340 nM
O=c1cc(C(F)(F)F)c2cc(S(=O)(=O)NCc3cccs3)ccc2[nH]1 [Example 118, 2-Oxo-4-trifluoromethyl-1,2-dihydroquinoline-6-sulfonic acid(thiophen-2-ylmethyl)amide]	> 10000 nM
COCCNS(=O)(=O)c1ccc2[nH]c(=O)cc(C(F)(F)F)c2c1 [Example 119, 2-Oxo-4-trifluoromethyl-1,2-dihydroquinoline-6-sulfonic acid(2-methoxyethyl)amide]	4690 nM
CC(C)CCNS(=O)(=O)c1ccc2[nH]c(=O)cc(C(F)(F)F)c2c1 [Example 121, 2-Oxo-4-trifluoromethyl-1,2-dihydroquinoline-6-sulfonic acid(3-methylbutyl)amide]	280 nM
O=c1cc(C(F)(F)F)c2cc(S(=O)(=O)NCC3CCCCC3)ccc2[nH]1 [Example 123, 2-Oxo-4-trifluoromethyl-1,2-dihydroquinoline-6-sulfonic acidcyclohexylmethylamide]	8510 nM
O=c1cc(C(F)(F)F)c2cc(S(=O)(=O)NC3CCCCCC3)ccc2[nH]1 [Example 126, 2-Oxo-4-trifluoromethyl-1,2-dihydroquinoline-6-sulfonic acidcycloheptylamide]	2930 nM
CC(C)OCCCNS(=O)(=O)c1ccc2[nH]c(=O)cc(C(F)(F)F)c2c1 [Example 127, 2-Oxo-4-trifluoromethyl-1,2-dihydroquinoline-6-sulfonic acid(3-isopropoxypropyl)amide]	1600 nM
O=c1cc(C(F)(F)F)c2cc(S(=O)(=O)NCc3ccc(F)cc3)ccc2[nH]1 [Example 129, 2-Oxo-4-trifluoromethyl-1,2-dihydroquinoline-6-sulfonic acid4-fluorobenzylamide]	> 10000 nM
CC(CNS(=O)(=O)c1ccc2[nH]c(=O)cc(C(F)(F)F)c2c1)c1ccccc1 (stereo not shown) [Example 131, 2-Oxo-4-trifluoromethyl-1,2-dihydroquinoline-6-sulfonic acid(2-phenylpropyl)amide]	350 nM
CN1CCCC1CCNS(=O)(=O)c1ccc2[nH]c(=O)cc(C(F)(F)F)c2c1 (stereo not shown) [Example 134, 2-Oxo-4-trifluoromethyl-1,2-dihydroquinoline-6-sulfonic acid[2-(1-methylpyrrolidin-2-yl)ethyl]amide]	> 10000 nM
COc1ccccc1CCNS(=O)(=O)c1ccc2[nH]c(=O)cc(C(F)(F)F)c2c1 [Example 135, 2-Oxo-4-trifluoromethyl-1,2-dihydroquinoline-6-sulfonic acid[2-(2-methoxyphenyl)ethyl]amide]	170 nM
CCOc1ccccc1CNS(=O)(=O)c1ccc2[nH]c(=O)cc(C(F)(F)F)c2c1 [Example 136, 2-Oxo-4-trifluoromethyl-1,2-dihydroquinoline-6-sulfonic acid2-ethoxybenzylamide]	580 nM
O=c1cc(C(F)(F)F)c2cc(S(=O)(=O)NCc3cccc(Cl)c3)ccc2[nH]1 [Example 138, 2-Oxo-4-trifluoromethyl-1,2-dihydroquinoline-6-sulfonic acid3-chlorobenzylamide]	> 10000 nM
O=c1cc(C(F)(F)F)c2cc(S(=O)(=O)NCc3c(F)cccc3Cl)ccc2[nH]1 [Example 142, 2-Oxo-4-trifluoromethyl-1,2-dihydroquinoline-6-sulfonic acid2-chloro-6-fluorobenzylamide]	2390 nM

Next, values leading:

IC50	Structure (SMILES)
120 nM	O=c1cc(C(F)(F)F)c2cc(S(=O)(=O)Nc3cccc(OC(F)(F)F)c3)ccc2[nH]1 [Example 112, 2-Oxo-4-trifluoromethyl-1,2-dihydroquinoline-6-sulfonic acid(3-trifluoromethoxyphenyl)amide]
> 10000 nM	O=c1cc(C(F)(F)F)c2cc(S(=O)(=O)Nc3ccc(CCO)cc3)ccc2[nH]1 [Example 113, 2-Oxo-4-trifluoromethyl-1,2-dihydroquinoline-6-sulfonic acid[4-(2-hydroxyethyl)phenyl]amide]
8130 nM	O=c1cc(C(F)(F)F)c2cc(S(=O)(=O)Nc3ccccc3Sc3ccccc3)ccc2[nH]1 [Example 115, 2-Oxo-4-trifluoromethyl-1,2-dihydroquinoline-6-sulfonic acid(2-phenylsulfanylphenyl)amide]
820 nM	O=c1cc(C(F)(F)F)c2cc(S(=O)(=O)NC3CCCC3)ccc2[nH]1 [Example 120, 2-Oxo-4-trifluoromethyl-1,2-dihydroquinoline-6-sulfonic acidcyclopentylamide]
1030 nM	CC(C)(C)CCNS(=O)(=O)c1ccc2[nH]c(=O)cc(C(F)(F)F)c2c1 [Example 122, 2-Oxo-4-trifluoromethyl-1,2-dihydroquinoline-6-sulfonic acid(3,3-dimethylbutyl)amide]
4610 nM	Cc1ccccc1CNS(=O)(=O)c1ccc2[nH]c(=O)cc(C(F)(F)F)c2c1 [Example 124, 2-Oxo-4-trifluoromethyl-1,2-dihydroquinoline-6-sulfonic acid2-methylbenzylamide]
2940 nM	C[C@@H](NS(=O)(=O)c1ccc2[nH]c(=O)cc(C(F)(F)F)c2c1)c1ccccc1 [Example 125, 2-Oxo-4-trifluoromethyl-1,2-dihydroquinoline-6-sulfonic acid(1-phenylethyl)amide]
2650 nM	O=c1cc(C(F)(F)F)c2cc(S(=O)(=O)NCCc3ccccc3)ccc2[nH]1 [Example 128, 2-Oxo-4-trifluoromethyl-1,2-dihydroquinoline-6-sulfonic acidphenethylamide]
1030 nM	O=c1cc(C(F)(F)F)c2cc(S(=O)(=O)NC3CCc4ccccc43)ccc2[nH]1 (stereo not shown) [Example 130, 2-Oxo-4-trifluoromethyl-1,2-dihydroquinoline-6-sulfonic acidindan-1-ylamide]
210 nM	O=c1cc(C(F)(F)F)c2cc(S(=O)(=O)NCCC3=CCCCC3)ccc2[nH]1 [Example 132, 2-Oxo-4-trifluoromethyl-1,2-dihydroquinoline-6-sulfonic acid(2-cyclohex-1-enylethyl)amide]
1900 nM	O=c1cc(C(F)(F)F)c2cc(S(=O)(=O)NCCc3cccs3)ccc2[nH]1 [Example 133, 2-Oxo-4-trifluoromethyl-1,2-dihydroquinoline-6-sulfonic acid(2-thiophen-2-ylethyl)amide]
3760 nM	Cc1ccc(F)cc1CNS(=O)(=O)c1ccc2[nH]c(=O)cc(C(F)(F)F)c2c1 [Example 137, 2-Oxo-4-trifluoromethyl-1,2-dihydroquinoline-6-sulfonic acid5-fluoro-2-methylbenzylamide]
2980 nM	O=c1cc(C(F)(F)F)c2cc(S(=O)(=O)NCc3c(F)cccc3F)ccc2[nH]1 [Example 139, 2-Oxo-4-trifluoromethyl-1,2-dihydroquinoline-6-sulfonic acid2,6-difluorobenzylamide]
5650 nM	O=c1cc(C(F)(F)F)c2cc(S(=O)(=O)NCc3ccc(F)cc3Cl)ccc2[nH]1 [Example 140, 2-Oxo-4-trifluoromethyl-1,2-dihydroquinoline-6-sulfonic acid2-chloro-4-fluorobenzylamide]
> 10000 nM	O=c1cc(C(F)(F)F)c2cc(S(=O)(=O)NCc3cccc(Cl)c3F)ccc2[nH]1 [Example 141, 2-Oxo-4-trifluoromethyl-1,2-dihydroquinoline-6-sulfonic acid3-chloro-2-fluorobenzylamide]
840 nM	CSc1ccccc1CNS(=O)(=O)c1ccc2[nH]c(=O)cc(C(F)(F)F)c2c1 [Example 143, 2-Oxo-4-trifluoromethyl-1,2-dihydroquinoline-6-sulfonic acid2-methylsulfanylbenzylamide]

Reference: patent publication US7009052B2, “Sulfonamide derivatives” (Warner Lambert Company LLC, priority 2003, dated 2006)
